Values joined by “and” are separate entries in the source; they are usually repeats but may differ in a detail not shown here. Identical values can stand only once. “Also recorded” adds a separate entry of the source. Like-named read-outs stand apart in the source and are kept apart here.
How the values were obtained:
OMA1 [1] = experiment: OMA1 antagonist test: CCCP-induced OPA1 cleavage in HEK293T cells, OPA1 Western blot; assay type: cell-based, human; details: for proteolytic cleavage of large OPA1 isoforms upon CCCP: 2 hours before 10 μM CCCP for 30 min
Procedure: HEK293T cells were cultured and maintained in Dulbecco's Modified Eagle's Medium supplemented with 10% fetal bovine serum (FBS) and 2 mM […] in a 95% air-5% CO2 humidified atmosphere at 37° C. To test potential OMA1 antagonists, cells were seeded in 24-well plates and incubated over night to achieve around 90% confluency. For experiments the culture medium was replaced with Minimal Essential Medium and cells were pre-incubated with variable concentrations of the different test-compounds for 2 hours in a 95% air-5% CO2 humidified atmosphere at 37° C. After 2 hours, OMA1 protease was activated through the addition of carbonyl cyanide m-chlorophenyl hydrazone (CCCP; 10 μM final concentration) for 30 min in the presence of different concentrations of compounds to be tested. After 30 minutes, cells were immediately placed on ice, the medium removed, and cells harvested through addition of 100 μl RIPA buffer supplemented with protease inhibitor cocktail. Samples were separated on 8% tris-glycine gels and transferred onto nitro-cellulose membranes by Wester blotting. Membranes were immunolabeled with anti-OPA1 Antibodies (1:1,000) and with goat-anti-mouse Alkaline Phosphatase conjugated secondary antibodies (1:5,000). OPA1 protein was visualized with NBT/BCIP between 5 and 15 minutes before the reaction was stopped with an excess of distilled water.
CCCP is a potent mitochondrial oxidative phosphorylation uncoupler that activates OMA1 and creates conditions that allow OPA1 cleavage to occur.

OMA1 [2] = experiment: OPA1-Western blot of Hek293T cells incubated with tipranavir, OMA1 activated with CCCP or sorafenib; assay type: cell-based, human
Procedure: FIG. 28. […] OMA1 was activated with 3 μM CCCP for 30 minutes.
FIG. 29. Tipranavir can activate OMA1 at concentrations above 20 μM. […] OMA1 was then activated with 4 μM CCCP for 30 minutes in the indicated samples.
FIG. 30. […] OMA1 was then activated with either 3 μM CCCP or 30 μM sorafenib (SFB) for 30 minutes in the indicated samples.
Experimentally, OMA1 can be activated in cellular assays by the mitochondrial uncoupler [(3-chlorophenyl)hydrazono]propanedinitrile (CCCP).
Example 9. Tipranavir can activate OMA1 at concentrations above 20 μM. To further determine tipranavir's effect on OPA1, I incubated Hek293T cells for an hour with low doses of 0 μM, 20 μM and 40 μM tipranavir (FIG. 29).
Example 10. 100 μM tipranavir can inhibit OPA1 cleavage upon CCCP-treatment and upon sorafenib treatment. […] To investigate whether 100 μM tipranavir can inhibit CCCP-induced OPA1-cleavage or OPA1-cleavage induced by other agents as well, I incubated Hek293T cells for an hour with low doses of 0 μM, 50 μM or 100 μM tipranavir before activating OMA1 with either 3 μM CCCP or 30 μM sorafenib (see FIG. 30).

OMA1 [3] = experiment: OMA1 agonist test: CCCP threshold of OMA1 activation/OPA1 cleavage in HEK293T cells; assay type: cell-based, human
OMA1 [4] = experiment: OMA1 gene expression micro-arrays in rat brain; assay type: in vivo; details: 10 exposures
Procedure: Rats were exposed to 1% Isoflurane for 90 minutes twice daily for a total of 5 or 10 exposures, after which animals were sacrificed and brain samples analyzed by gene expression micro-arrays (Pan et al. 2006).

OMA1 [5] = details: 1% Isoflurane, 90 minutes twice daily, cited from earlier work
OMA1 [6] = details: RS4.11 cells, 10 μM SB216763, 20 hours; cited from earlier work
OMA1 [7] = experiment: OMA1 gene expression microarray in RS4.11 MLL leukemia cells; assay type: cell-based, human; details: RS4.11 cells, 10 μM SB216763, 20 hours
Procedure: Human MLL leukemia RS4.11 cells were cultured without or with 10 μM SB216763 for 20 hours (Wang et al. 2010). […] SB216763 is a kinase inhibitor and the finding that SB216763 can increase OMA1 levels was unexpected and is non-obvious to a person skilled in the arts. In context of the present invention SB216763 thus represents an agonist of OMA1 and/or an oligomeric complex comprising OMA1 as defined above. Accordingly, SB216763 represents a medical intervention in particular for the treatment, prevention and/or amelioration of a disorder or disease correlated with mitochondrial stress or dysfunction, a mitochondrial disorder or disease, or a disorder or disease characterized by OPA1 alterations.
Referring to FIG. 23, the GSK-3 inhibitor SB216763 (CAS #280744-09-4) represents an agonist of OMA1. […] RS4.11 cells were cultured for 20 hours without or with 10 μM SB216763, after which mRNA was isolated and analyzed by gene expression microarrays. Controls expressed OMA1 at 8.10 (±0.01 S.D.) and SB216763 treated cells expressed OMA1 at 8.7 (±0.18 S.D.).

OMA1 [8] = details: KMH2 cells, 20 mM glucosamine, 24 hours; cited from earlier work
OMA1 [9] = experiment: OMA1 gene expression microarray in KMH2 cells; assay type: cell-based, human; details: 20 mM glucosamine, 24 hours
Procedure: Human malignant lymphocytes (KMH2 cells) were cultured without or with 20 mM glucosamine (Carvalho et al. 2014). After 24 hours mRNA was isolated and analyzed by gene expression microarrays. Controls expressed OMA1 at 7.31 (±0.08 S.D.) and glucosamine treated cells expressed OMA1 at 6.69 (±0.06 S.D.). Glucosamine is a dietary supplement and its effects on mitochondria are known to a person skilled in the arts (Carvalho et al. 2014; Bond and Hanover 2015; Tan et al. 2017). […] In context of the present invention glucosamine thus represents an antagonist of OMA1 and/or an oligomeric complex comprising OMA1 as defined above. Accordingly, glucosamine represents a medical intervention in particular for the treatment, prevention and/or amelioration of a disorder or disease correlated with mitochondrial stress or dysfunction, a mitochondrial disorder or disease, or a disorder or disease characterized by OPA1 alterations.
Referring to FIG. 21, the dietary supplement glucosamine (CAS #3416-24-8) represents an antagonist of OMA1. […] KMH2 cells were cultured for 24 hours without or with 20 mM glucosamine, after which mRNA was isolated and analyzed by gene expression microarrays. Controls expressed OMA1 at 7.31 (±0.08 S.D.) and glucosamine treated cells expressed OMA1 at 6.69 (±0.06 S.D.).

OPA1 = details: cells cultured with the compound; cited from earlier work

## CC(C)ON(CC(=O)NO)S(=O)(=O)c1ccc(-c2ccccc2)cc1 [ARP100]
OMA1 [1]; 70 μM
  proteolytic cleavage of large OPA1 isoforms upon CCCP: all OPA1 isoforms including the large OPA1-L1 and OPA1-L2 isoforms were readily detectable; also recorded: The large OPA1-L1 and OPA1-L2 isoforms were still readily detectable

## N#CC(C#N)=NNc1cccc(Cl)c1 [CCCP, carbonyl cyanide m-chlorophenyl hydrazone]
OMA1 [2]; 3 μM CCCP, 30 minutes
  L-OPA1 hydrolysis by CCCP alone: all L-OPA1 isoforms are hydrolyzed upon CCCP treatment
OMA1 [1]; 10 μM CCCP, 30 minutes
  OMA1 activation / OPA1 cleavage by CCCP alone: resulted in cleavage of both large OPA1-L1 and OPA1-L2 isoforms; also recorded: could activate OMA1, which resulted in the cleavage of the OPA1-L1 and OPA1-L2 isoforms
OMA1 [3]; 0 μM, 3 μM and 5 μM CCCP, untreated (vehicle-only) cells
  OPA1 processing by CCCP alone: had no effect on OPA1 processing in untreated cells
OMA1 [3]; 7 μM CCCP, untreated (vehicle-only) cells
  OPA1 cleavage / OMA1 activation by CCCP alone: OPA1 was cleaved only at the highest concentration of 7 μM CCCP; also recorded: OMA1 was activated at the highest concentration of 7 μM CCCP

## FC(F)OC(Cl)C(F)(F)F (stereo not shown) [Isoflurane]
OMA1 [4]
  increase of OMA1 gene expression in rat brain: 180% and 280%
OMA1 [5]; 5 exposures
  OMA1 expression level in rat brain: 19.1 (±3.4 S.D.)
OMA1 [5]; 10 exposures
  OMA1 expression level in rat brain: 29.3 (±6.3 S.D.)

## Cn1cc(C2=C(c3ccc(Cl)cc3Cl)C(=O)NC2=O)c2ccccc21 [SB216763]
OMA1 [6]
  OMA1 expression level: 8.7 (±0.18 S.D.)
OMA1 [7]
  increase of OMA1 gene expression levels: 7.6%

## O=S(=O)(CC1CS1)c1ccc(Oc2ccccc2)cc1 (stereo not shown) [SB-3CT]
OMA1 [3]; 100 μM SB-3CT, 0 μM CCCP
  OPA1 cleavage without CCCP: did not show OPA1 alterations; also recorded: did not induce OPA1 cleavage without CCCP
OMA1 [3]; 100 μM SB-3CT, 3 μM and 5 μM CCCP for 20 minutes
  OPA1 cleavage / OMA1 activation at low CCCP: caused OPA1 cleavage to occur already at 3 μM and 5 μM CCCP; also recorded: OMA1 was already activated at lower concentrations of 3 μM and 5 μM CCCP

## O=C(O)CNC(=O)C(CS)Cc1ccccc1 (stereo not shown) [Thiorphan]
OMA1 [1]; 100 μM
  proteolytic cleavage of large OPA1 isoforms upon CCCP: all OPA1 isoforms including the two large OPA1-L1 and OPA1-L2 isoforms were readily detectable; also recorded: The large OPA1-L1 and OPA1-L2 isoforms were still readily detectable

## N[C@H]1C(O)O[C@H](CO)[C@@H](O)[C@@H]1O (stereo partly shown) [glucosamine]
OMA1 [8]
  OMA1 expression level: 6.69 (±0.06 S.D.)
OMA1 [9]
  decrease of OMA1 gene expression levels: 8.5%

## c1cnc2c(c1)ccc1cccnc12 [phenanthroline]
OMA1 [1]; 500 μM
  proteolytic cleavage of large OPA1 isoforms upon CCCP: The large OPA1-L1 and OPA1-L2 isoforms were still readily detectable; also recorded: inhibited proteolytic cleavage of OPA1 by OMA1
OPA1
  OPA1 levels and OPA1L/OPA1S isoforms: an increase in the OPA1L isoform

## CNC(=O)c1cc(Oc2ccc(NC(=O)Nc3ccc(Cl)c(C(F)(F)F)c3)cc2)ccn1 [sorafenib]
OMA1 [2]; 30 μM sorafenib, 30 minutes
  OMA1 activation / OPA1 cleavage by sorafenib alone: activate OMA1 and lead to OPA1 cleavage similar to CCCP

## CCC[C@@]1(CCc2ccccc2)CC(O)=C([C@H](CC)c2cccc(NS(=O)(=O)c3ccc(C(F)(F)F)cn3)c2)C(=O)O1 [tipranavir]
OMA1 [2]; Hek293T cells, 1 hour
  concentration at which tipranavir can activate OMA1: above 20 μM

Source: US11993590B2, “Pyranone compounds useful to modulate OMA1 protease” (712 North Inc., priority 2016, dated 2024)
